Assay results reported in patent US7432247B2, “Methods of cardioprotection using dichloroacetate in combination with an inotrope” (The Governors of the University of Alberta, priority 2002, dated 2008).
Where “and” joins values, the source holds several entries; their conditions need not be identical. Identical values can stand only once.

How the values were obtained:
Assay type in all cases: in vivo, human
[1] = Plasma DCA levels after 50 mg/kg bolus in adult CABG patients (Example A); details: 50 mg/kg Na+ dichloroacetate, 1 hour following administration, n = 8 adult patients
Experimental: […] Based on the pharmacokinetics of DCA, we anticipated that this would produce a plasma concentration of approximately 1 mM. The study consisted of 8 DCA-treated patients and 10 placebo-treated patients.
[…] The coded solution was made such that a dose of 1 ml/kg provides the appropriate dose of DCA or placebo. Based on the pharmacokinetics of DCA, this was expected to result in a plasma level of DCA in the therapeutic range of (1 mM). All blood samples were analyzed by HPLC for DCA concentration.
Plasma samples were processed for DCA levels using a high performance liquid chromatography (HPLC) technique that separated the DCA from other plasma constituents. In brief, 20 μl of plasma sample was injected into a Beckman Gold HPLC containing a IonoBpher 5A column (250×4.6 mm LxID) and a AX Guard Column. The mobile phase of the column consisted of 10^-3 M pyromellitate buffer (pH=4.0). The flow rate of the HPLC was set at 3.0 ml/min and the DCA eluted from the column was detected by comparing DCA elution times to acetate, monochloroacetate, and trichloroacetate standards. Heart ventricular biopsy samples were taken at 0, and 20 minutes, and at 1 hour, following release of the cross clamp and reperfusion of the heart muscle, and immediately frozen in liquid N2. Blood samples were also taken at various intervals during the reperfusion period between 0 to 24 hours post-surgery.

[2] = Pediatric heart surgery study, DCA bolus and infusion vs placebo: inotrope score, ICU time, ventilator time (Example C); design: reduction of Inotrope Score compared to placebo: concentration or dose not given beside the values; details: for average decrease in Inotrope Score per patient compared to placebo: over the 24 hour period
Experimental: This study was a randomized, placebo-controlled, double blinded, single surgeon, study of the use of DCA in 51 high-risk pediatric patients requiring heart surgery to correct complex congenital heart lesions.
(§1) In this trial, 53 infants were recruited to participate in a study, of which 51 patients met inclusion criteria after parental consent. Two dosing groups resulted from the study team changing the dosing protocol after the data from the initial 10 patients were analyzed. The data from patients number 1 to number 10 was analyzed for DCA therapeutic blood levels and therapeutic effect. A recommendation by the research team was made to increase the bolus dose of DCA and to decrease the infusion dose of DCA to maintain a DCA dose range of 1 mM for 24 hours. The intent was to administer the new protocol at patient number 20. The 1997 Epicore power calculations were based on separation of the study groups patients into group A of n=20 patients and Group B of n=31 patients
(§2) DCA (50 mg/kg) or placebo was injected into the aortic root immediately prior to removing aortic cross clamp. The coded solutions were made such that a dose of 1 ml/kg provided either a DCA therapeutic level of 1 mM plasma concentration of DCA, or a placebo solution. Immediately thereafter, an infusion of DCA at 25 mg/kg/hr or placebo in the same volume was initiated and run for 24 hours. Based on the pharmacokinetics of DCA, this was expected to maintain plasma levels of DCA in the therapeutic range of (0.2-1 mM). However, the plasma concentrations of DCA were below 1 mM after the first hour interval, and that the 24 hour plasma concentrations were elevated above 1 mM DCA levels at the 24 hour interval, a decision was made to modify the dosing protocol. This change in dosing protocol was approved by the Ethics Committee, but not implemented until patient number 24. All blood samples were analyzed by HPLC for DCA concentration. • (ii) Group B
(§3) DCA (100 mg/kg) or placebo was injected into the aortic root immediately prior to removing aortic cross clamp. The coded solutions were made such that a dose of 1 ml/kg provided either a DCA therapeutic level of 1 mM plasma concentration of DCA, or a placebo solution. Immediately thereafter, an infusion of DCA at 12.5 mg/kg/hr or placebo in the same volume was initiated and run for 24 hours. Based on the pharmacokinetics of DCA, this was expected to maintain plasma levels of DCA in the therapeutic range of (0.2-1 mM). All blood samples were analyzed by HPLC for DCA concentration.
In both the operating room at the end of cardiopulmonary bypass and in the intensive care unit, parenteral drugs were scored on an hourly basis with 1 point allotted for each level for each bolus or infusion given within the previous hour within the first 24 hours post-operatively. Thus at the end of 24 hours, high scores indicated poorer cardiac function.

[3] = Observed side effects of DCA in patients
[4] = DCA plasma levels in pediatric heart surgery patients, bolus and 24 hour infusion (Example C); details: for Average Optimum Mean of DCA Plasma Levels, mM at 1 hr / Average Optimum Mean of DCA Plasma Levels, mM at 6 hr / Average Optimum Mean of DCA Plasma Levels, mM at 12 hr / Average Optimum Mean of DCA Plasma Levels, mM at 24 hr: patients with greatest degree of clinical benefits
Experimental: as §1, §2, §3
Arterial blood samples were obtained from patients at the following times:
c. One hour after discontinuing cardiopulmonary bypass.
d. Six hours after discontinuing cardiopulmonary bypass
e. Twelve hours after discontinuing cardiopulmonary bypass.
f. Twenty four hours after discontinuing cardiopulmonary bypass.
Blood samples were collected from indwelling arterial lines into citrate-containing tubes (0.5 ml blood samples). The samples were spun in the microfuge, the plasma separated, and frozen immediately for later analysis. All plasma samples were stored at −80 degrees centigrade, until further processing. Plasma glucose and lactate were determined using a Sigma glucose kit and a spectrophotometric assay involving lactate dehydrogenase respectively. Plasma fatty acid levels were measured using an ELISA system and WAKO free fatty acid kit.

[5] = Mortality in the adult CABG study (Example A); details: DCA group, 8 adult patients, 50 mg/kg bolus
Experimental: DCA or saline was administered to 18 patients undergoing elective cardiac bypass grafting surgery (CABG) in a double blinded randomized manner DCA (50 mg/kg in 100 ml of saline) or placebo was injected into the aortic root, immediately prior to removing aortic cross clamp. Based on the pharmacokinetics of DCA, we anticipated that this would produce a plasma concentration of approximately 1 mM. The study consisted of 8 DCA-treated patients and 10 placebo-treated patients.
The intervention involved DCA (50 mg/kg) or placebo injected into the aortic root immediately prior to removing aortic cross clamp. The coded solution was made such that a dose of 1 ml/kg provides the appropriate dose of DCA or placebo. Based on the pharmacokinetics of DCA, this was expected to result in a plasma level of DCA in the therapeutic range of (1 mM). All blood samples were analyzed by HPLC for DCA concentration.

[6] = Group A: 50 mg/kg bolus and 25 mg/kg/hour infusion
[7] = Group A: 50 mg/kg bolus and 25 mg/kg/hour infusion, 23 patients
[8] = Group B: 100 mg/kg bolus and 12.5 mg/kg/hour infusion
[9] = Group B: 100 mg/kg bolus and 12.5 mg/kg/hour infusion, 24 patients
[10] = Group A: 50 mg/kg bolus and 25 mg/kg/hr infusion
[11] = Group B: 100 mg/kg bolus and 12.5 mg/kg/hr infusion

## O=C(O)C(Cl)Cl [DCA, dichloroacetate]
[1]
  Plasma Dichloroacetate Levels: approximately 1 mM
[1]; listed as Dichloroacetate
  Plasma Dichloroacetate Levels: 0.948 ± 0.061 mM
[2]; [6]
  decrease of ventilator time compared to placebo: 47%
  reduction of ventilator time compared to placebo: 46 h
[2]; [7]
  decrease of time in ICU compared to placebo: 41%
  reduction of time in ICU compared to placebo: 60 h
[2]; Group A, by 1 hour
  reduction of Inotrope Score compared to placebo: 50%
[2]; Group A, by 12 hours
  reduction of Inotrope Score compared to placebo: 45%
[2]; Group A, by 24 hours
  reduction of Inotrope Score compared to placebo: 38%
[2]; Group A
  average decrease in Inotrope Score per patient compared to placebo: 44%
[2]; [8]
  decrease of ventilator time compared to placebo: 23%
  reduction of ventilator time compared to placebo: 18 h and 19 h
[2]; [9]
  decrease of time in ICU compared to placebo: 40%
  reduction of time in ICU compared to placebo: 50 h
[2]; Group B, by 1 hour
  reduction of Inotrope Score compared to placebo: 57%
[2]; Group B, by 12 hours
  reduction of Inotrope Score compared to placebo: 49%
[2]; Group B, by 24 hours
  reduction of Inotrope Score compared to placebo: 45%
[2]; Group B
  average decrease in Inotrope Score per patient compared to placebo: 51%
[3]; patients
  side-effects: not have significant side-effects, although some patients experience mild drowsiness
[3]; previous studies
  adverse effects in previous (pilot) studies: no adverse effects
[4]; Example C, Group B, 1 to 6 hour interval
  optimum mean DCA plasma level: 1 mM
[4]; [10]
  Average DCA Plasma Levels, mM at 6 hr: 1.134 mM
  Average DCA Plasma Levels, mM at 12 hr: 1.771 mM
  Average Optimum Mean of DCA Plasma Levels, mM at 1 hr: 1.0 mM
  Average Optimum Mean of DCA Plasma Levels, mM at 6 hr: 0.916 mM
  Average Optimum Mean of DCA Plasma Levels, mM at 12 hr: 1.52 mM and 1.523 mM
  Average Optimum Mean of DCA Plasma Levels, mM at 24 hr: 2.29 mM and 2.288 mM
[4]; [11]
  Average DCA Plasma Levels, mM at 1 hr: 1.131 mM
  Average DCA Plasma Levels, mM at 6 hr: .894 mM
  Average DCA Plasma Levels, mM at 12 hr: 1.427 mM
  Average DCA Plasma Levels, mM at 24 hr: 2.231 mM
  Average Optimum Mean of DCA Plasma Levels, mM at 1 hr: 1.012 mM
  Average Optimum Mean of DCA Plasma Levels, mM at 6 hr: 1.0 mM
  Average Optimum Mean of DCA Plasma Levels, mM at 12 hr: 1.0 mM
  Average Optimum Mean of DCA Plasma Levels, mM at 24 hr: 1.0 mM
[5]
  mortality: no mortalities
